According to US6156790A, “C-10 carbon-substituted artemisinin-like trioxane compounds having antimalarial, antiproliferative and antitumor activities” (priority 1997, dated 2000):

How the values were obtained:
[1] = cited from earlier work
[2] = system: Ehrlich ascites tumor (EAT) cells; conditions: cited from earlier work
P. berghei = conditions: cited from earlier work
60 cell line panel = experiment: NCI 60 cell line screen, whole panel; type: cell-based
[3] = system: chloroquine-sensitive P. falciparum (NF54); experiment: In vitro antimalarial activity ([3H]hypoxanthine incorporation); type: cell-based; conditions: in words
Method: Activity was determined by measuring the incorporation of [^3 H]hypoxanthine, by the methods of Desjardins and Milhouse, with the following modofications, see […].; Haynes, […]. Antimicrob. Agents Chemother., 16:710 (1979); Milhous, W. K.; Weatherly, […].; Antimicrob. Agents Chemother., 27: 525 (1985). […] Parasitemia was maintained at 0.05-3% and doubling time at approximately 15 hours by twice weekly change of medium and replenishment with fresh erythrocytes. […] Sigma-Aldrich #27,043-1). DMSO solutions were diluted 500-fold in medium, serially diluted in 0.2% DMSO in medium (to maintain constant solvent concentration), then 100 μL aliquots were pipetted into microtiter plate wells (Costar 3595). […] Plates included at least 8 wells of no drug controls (4 with and 4 without DMSO) and 4 wells of uninfected erythrocytes. […] Cells were harvested (Brandel MB-48R) onto GF-C glass filters (Brandel). The filters were washed five times with 3 mL water per sample spot, dried under a heat lamp, and counted (Beckman Model LS-6500) in scintillation cocktail (ICN Cytoscint). Decays per minute (dpm) values were downloaded and analyzed (Power MFacintosh 7200/90; Microsoft Excel 5.0), to yield the mean and standard deviation at each drug concentration.

T-47D = experiment: cells; type: cell-based; conditions: Homo sapiens, T47D, read-out: Log10 TGI
HOP-92 = experiment: NCI 60 cell line screen (SRB), non-small cell lung cancer; type: cell-based; conditions: Homo sapiens, read-out: Log10 TGI (converted)
MDA-MB-435 = experiment: cells; type: cell-based; conditions: Homo sapiens, read-out: Log10 TGI (converted)
A498 = experiment: cells; type: cell-based; conditions: Homo sapiens, read-out: Log10 GI50 (converted)
SF-539 = experiment: cells; type: cell-based; conditions: Homo sapiens, read-out: Log10 TGI (converted)
MDA-MB231/ATCC = experiment: cells; type: cell-based; conditions: Homo sapiens, MDA-MB-231, read-out: Log10 TGI (converted)
NCI-H522 = experiment: cells; type: cell-based; conditions: Homo sapiens, read-out: Log10 TGI (converted)
COLO 205 = experiment: NCI 60 cell line screen (SRB), colon cancer; type: cell-based; conditions: Homo sapiens, read-out: Log10 TGI (converted)
NCI-H460 = experiment: cells; type: cell-based; conditions: Homo sapiens
PC-3 = experiment: cells; type: cell-based; conditions: Homo sapiens, PC-3, read-out: Log10 TGI
IGROVI = experiment: cells; conditions: 60 cell
NCI-H23 = experiment: NCI 60 cell line screen (SRB), non-small cell lung cancer; type: cell-based; conditions: Homo sapiens
U251 = experiment: cells; type: cell-based; conditions: Homo sapiens, U-251, read-out: Log10 TGI (converted)
NCI-H226 = experiment: NCI 60 cell line screen (SRB), non-small cell lung cancer; type: cell-based; conditions: Homo sapiens
HCT-15 = experiment: cells; type: cell-based; conditions: Homo sapiens, HCT-15, read-out: Log10 TGI
EKVX = experiment: NCI 60 cell line screen (SRB), non-small cell lung cancer; type: cell-based; conditions: Homo sapiens
HT29 = experiment: cells; type: cell-based; conditions: Homo sapiens, HT-29, read-out: Log10 TGI (converted)
K-562 = experiment: cells; type: cell-based; conditions: Homo sapiens, K562, read-out: Log10 TGI
MDA-N = experiment: cells; type: cell-based; conditions: Homo sapiens
SNB-75 = experiment: cells; type: cell-based; conditions: Homo sapiens
MCF7 = experiment: cells; type: cell-based; conditions: Homo sapiens
SF-295 = experiment: cells; type: cell-based; conditions: Homo sapiens, read-out: Log10 TGI (converted)
MOLT-4 = experiment: cells; conditions: Homo sapiens, MOLT-4, read-out: concentration for primary growth inhibition
Method: The screening assay is performed on a 96-well microtitre plates.
Dose response curves, shown in the above mentioned Figures, are obtained by exposing various cancer cell lines to compounds having a known concentration ([log10 M]), as discussed in detail above, and then plotting the percentage growth of each cell line for each concentration. […] As discussed previously, the five drug dilutions routinely tested range from 10^-4 to 10^-9 molar.

HS 578T = experiment: cells; type: cell-based; conditions: Homo sapiens, read-out: Log10 TGI (converted)
HOP-62 = experiment: cells; type: cell-based; conditions: Homo sapiens, read-out: Log10 TGI (converted)
ACHN = experiment: cells; conditions: Homo sapiens, read-out: Log10 LC50 (converted)
[4] = system: murine keratinocyte cell line PE; experiment: growth inhibition of PE cells (MTT assay); type: cell-based; conditions: 100 nanomolar
Method: To determine the inhibitory effect of the compositions of the present invention on cell proliferation, screening assays were performed on a murine keratinocyte cell line PE. Cell line PE was chosen for its particular sensitivity to the induction of ornithine decarboxylase (ODC) activity by the extensively characterized tumor promoter TPA. […] PE cell culture medium consisted of Eagle's minimal essential medium without calcium chloride (Whittaker Bioproducts, Walkersville, Mass.) supplemented with 8% chelexed fetal calf serum and 1% antibiotic-antimycotic (Gibco BRL) and the addition of CaCl2 to 0.05 mM Ca^++.
Growth Inhibition. Growth curves, shown in FIGS. 1 and 2, for PE cells treated with calcitriol and the C-10 carbon-substituted dimers 21, 22, 26, 27, and 28 generated by assay for the reduction of the tetrazolium-based compound MTT, see Charmichael, et al., Cancer Res., 47:936-942 (1987). […] PE cells were seeded at a density of 5,000 cells/well in 50 μL of medium into 96-well microtiter plates. Twelve hours later, the medium was removed, and cells were treated with 100 μL of fresh medium into which the appropriate amount of calcitrol or analog dissolved in dimethyl sulfoxide (DMSO) had been added, with the concentration of DMSO held constant at 0.1%. […] At 24-hour intervals following the initial treatment of the cells with compounds, 0.1 mg (50 μL of a 2 mg/mL solution) of MTT was added to each well. After 4 hours, the MTT was removed and DMSO added to dissolve the blue formazan dye. Using a microtiter plate reader, the A505 was then determined and cell number calculated from blank-subtracted absorbance values.

BT-549 = experiment: cells; type: cell-based; conditions: Homo sapiens, read-out: Log10 TGI (converted)
KM12 = experiment: cells; type: cell-based; conditions: Homo sapiens, read-out: Log10 TGI (converted)
SF-268 = experiment: NCI 60 cell line screen (SRB), CNS cancer; type: cell-based; conditions: Homo sapiens, read-out: Log10 TGI (converted)
A549/ATCC = experiment: NCI 60 cell line screen (SRB), non-small cell lung cancer; type: cell-based; conditions: Homo sapiens
HCT-116 = experiment: cells; type: cell-based; conditions: Homo sapiens, read-out: Log10 TGI (converted)
[5] = system: murine keratinocyte cell line PE; experiment: viability by trypan blue exclusion; type: cell-based; conditions: 96 hours
[6] = rat liver microsomes; cited from earlier work
[7] = read-out: Log10 GI50 (converted)
[8] = read-out: Log10 LC50 (converted)
[9] = read-out: Log10 TGI (converted)

For `C[C@@H]1CC[C@H]2[C@@H](C)C(O)O[C@@H]3O[C@@]4(C)CC[C@@H]1[C@]32OO4` (some centres unmarked) [dihydroartemisinin (II-1), dihydroartemisinin], the half-life in plasma [1] is listed as “less than two”.
In the case of `C[C@@H]1CC[C@H]2[C@@H](C)C(OC3O[C@@H]4O[C@@]5(C)CC[C@H]6[C@H](C)CC[C@@H]([C@H]3C)[C@@]46OO5)O[C@@H]3O[C@@]4(C)CC[C@@H]1[C@]32OO4` (some centres unmarked), the “times more cytotoxic than artemisinin” value [2] is given as “approximately twenty-two”, the “times more cytotoxic than dihydroartemisinin (II-1)” value [2] is given as “sixty” and the “times more potent than artemisinin at 50% growth inhibition” value ([2]; one cancer cell line) is given as “approximately twenty-two”. For the same molecule, the “SD90 (parasitemia 90 percent suppressed)” value (P. berghei; P. berghei-infected mice) was 10 mg/kg.
In the case of `C[C@H]1[C@@H](CC(=O)c2cccc(C(=O)C[C@H]3O[C@@H]4O[C@@]5(C)CC[C@H]6[C@H](C)CC[C@@H]([C@H]3C)[C@@]46OO5)c2)O[C@@H]2O[C@@]3(C)CC[C@H]4[C@H](C)CC[C@@H]1[C@@]24OO3` [Dimer 22], the GI50 (60 cell line panel; 60 cell, mean over panel, read-out: Log10 GI50 MG MID (converted)) is reported as 75.9 µM, the “Log10 TGI Delta” value (60 cell line panel; panel) is reported as 0.00 and the “Log10 TGI Range” value (60 cell line panel; panel) is reported as 0.00. The “IC50 compared with artemisinin” value [3] was “lower than that of artemisinin”, the IC (TGI) (T-47D) was over 100 µM and the IC (TGI) (HOP-92) was over 100 µM. It also gave an IC (TGI) (MDA-MB-435) of over 100 µM, a GI50 (A498) of 46.8 µM and an IC (TGI) (SF-539) of over 100 µM. The IC (TGI) (MDA-MB231/ATCC) was over 100 µM, the IC (TGI) (NCI-H522) was over 100 µM and the IC (TGI) (COLO 205) was over 100 µM. The IC (TGI) (NCI-H460; NCI-H460, read-out: Log10 TGI) was over 100 µM, the CC50 (NCI-H460; NCI-H460, read-out: Log10 LC50 (converted)) was over 100 µM and the IC (TGI) (PC-3) was over 100 µM. The GI50 (IGROVI; [7]) was 0.589 µM, the CC50 (IGROVI; Homo sapiens, read-out: Log10 LC50 (converted)) was over 100 µM and the LC50 (NCI-H23; [8]) was over 100 µM. It also gave an IC (TGI) (NCI-H23; [9]) of over 100 µM, an IC (TGI) (U251) of over 100 µM and a CC50 (NCI-H226; [8]) of over 100 µM. It also gave an IC (TGI) (NCI-H226; [9]) of over 100 µM, an IC (TGI) (HCT-15) of over 100 µM and a CC50 (EKVX; [8]) of over 100 µM. It also gave an IC (TGI) (EKVX; [9]) of over 100 µM, an IC (TGI) (HT29) of over 100 µM and an IC (TGI) (K-562) of over 100 µM. For the same molecule, the CC50 (MDA-N; [8]) was over 100 µM, the IC (TGI) (MDA-N; [9]) was over 100 µM and the GI50 (SNB-75; [7]) was 4.37 µM. For the same molecule, the IC (TGI) (SNB-75; [9]) was over 100 µM, the IC (TGI) (MCF7; MCF7, read-out: Log10 TGI) was over 100 µM and the GI50 (MCF7; MCF7, read-out: Log10 GI50 (converted)) was 0.389 µM. The IC (TGI) (SF-295) was over 100 µM, the GI50 (MOLT-4) was over 100 µM and the IC (TGI) (HS 578T) was over 100 µM. For the same molecule, the IC (TGI) (HOP-62) was over 100 µM, the CC50 (ACHN) was over 100 µM and the “antiproliferative activity compared with calcitriol” value [4] was “at least as antiproliferative as calcitrol”. It also gave an IC (TGI) (BT-549) of over 100 µM, an IC (TGI) (KM12) of over 100 µM and an IC (TGI) (SF-268) of over 100 µM. For the same molecule, the CC50 (A549/ATCC; [8]) was over 100 µM, the IC (TGI) (A549/ATCC; [9]) was over 100 µM and the IC (TGI) (HCT-116) was over 100 µM.
With `C=C1/C(=C\C=C2/CCC[C@]3(C)[C@@H]([C@H](C)CCCC(C)(C)O)CC[C@@H]23)C[C@@H](O)C[C@@H]1O` [calcitriol, 1α,25-dihydroxyvitamin D3] the “viability of treated cells vs control cells” value [5] was “identical to control cells”.
In the case of `CCO[C@H]1O[C@@H]2O[C@@]3(C)CC[C@H]4[C@H](C)CC[C@@H]([C@H]1C)[C@@]24OO3` [arteether], the “conversion into dihydroartemisinin (II-1)” value [6] is listed as “rapidly converted”.
For `CC1=CO[C@@H]2O[C@@]3(C)CC[C@H]4[C@H](C)CC[C@@H]1[C@@]24OO3` [olefinic compound III], the “activity against P. berghei-infected mice” value (P. berghei; in words) is listed as “inactive”.
